Laboratory results as given in ChEMBL document CHEMBL3632469, “Discovery of dihydroquinazolinone derivatives as potent, selective, and CNS-penetrant M(1) and M(4) muscarinic acetylcholine receptors agonists” (Bioorg Med Chem Lett, 2015).

Legend:
[1] = biological target: Alpha-2B adrenergic receptor (Homo sapiens) (UniProt P18089); assay: Agonist activity at adrenergic a2B receptor (unknown origin) expressed in CHO cells assessed as calcium mobilization at 3 uM; format: functional, cell-based
[2] = biological target: Adenosine receptor A2a (Homo sapiens) (UniProt P29274); assay: Antagonist activity at adenosine a2a receptor (unknown origin) expressed in CHO cells assessed as calcium mobilization at 3 uM; format: functional, cell-based
[3] = biological target: Alpha-2C adrenergic receptor (Homo sapiens) (UniProt P18825); assay: Agonist activity at adrenergic a2C receptor (unknown origin) expressed in CHO cells assessed as calcium mobilization at 3 uM; format: functional, cell-based
[4] = biological target: D(1B) dopamine receptor (Homo sapiens) (UniProt P21918); assay: Antagonist activity at dopamine D5 receptor (unknown origin) expressed in CHO cells assessed as calcium mobilization at 3 uM; format: functional, cell-based
[5] = biological target: 5-hydroxytryptamine receptor 4 (Homo sapiens) (UniProt Q13639); assay: Agonist activity at 5-HT4B receptor (unknown origin) expressed in CHO cells assessed as calcium mobilization at 3 uM; format: functional, cell-based
Rattus norvegicus = assay: Antipsychotic-like activity in sc dosed rat assessed as inhibition of METH-induced locomotor hyperactivity; format: functional
[6] = biological target: P2Y purinoceptor 1 (Homo sapiens) (UniProt P47900); assay: Antagonist activity at P2Y1 receptor (unknown origin) expressed in CHO cells assessed as calcium mobilization at 3 uM; format: functional, cell-based
[7] = biological target: Delta-type opioid receptor (Homo sapiens) (UniProt P41143); assay: Agonist activity at opiate delta1 receptor (unknown origin) expressed in CHO cells assessed as calcium mobilization at 3 uM; format: functional, cell-based
[8] = biological target: Neuropeptide Y receptor type 2 (Homo sapiens) (UniProt P49146); assay: Antagonist activity at NPY2 receptor (unknown origin) expressed in CHO cells assessed as calcium mobilization at 3 uM; format: functional, cell-based
[9] = biological target: Somatostatin receptor type 2 (Homo sapiens) (UniProt P30874); assay: Agonist activity at SSTR2 receptor (unknown origin) expressed in CHO cells assessed as calcium mobilization at 3 uM; format: functional, cell-based
[10] = biological target: D(2) dopamine receptor (Homo sapiens) (UniProt P14416); assay: Agonist activity at dopamine D2L receptor (unknown origin) expressed in CHO cells assessed as calcium mobilization at 3 uM; format: functional, cell-based
[11] = biological target: T1, Muscarinic acetylcholine receptor M4 (Homo sapiens) (UniProt P08173); assay: Partial agonist activity at human muscarinic M4 acetylcholine receptor expressed in CHO cells co-expressing Galpha16 assessed as calcium mobilization at 0.3 uM by FLIPR assay; format: functional, cell-based
T1 sequence (whole entry): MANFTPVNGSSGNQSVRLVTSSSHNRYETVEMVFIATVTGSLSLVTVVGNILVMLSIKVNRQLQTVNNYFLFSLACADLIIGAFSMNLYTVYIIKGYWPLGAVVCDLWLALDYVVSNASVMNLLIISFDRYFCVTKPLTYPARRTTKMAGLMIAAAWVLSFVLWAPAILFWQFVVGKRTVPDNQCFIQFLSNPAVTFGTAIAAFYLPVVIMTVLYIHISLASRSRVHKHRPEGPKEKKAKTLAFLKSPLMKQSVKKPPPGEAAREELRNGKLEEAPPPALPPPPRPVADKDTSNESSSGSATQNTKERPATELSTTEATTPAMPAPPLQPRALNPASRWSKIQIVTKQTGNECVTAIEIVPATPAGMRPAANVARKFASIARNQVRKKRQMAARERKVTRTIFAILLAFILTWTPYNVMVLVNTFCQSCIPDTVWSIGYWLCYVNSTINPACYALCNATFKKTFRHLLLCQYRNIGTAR

[12] = biological target: Muscarinic acetylcholine receptor M4 (Homo sapiens, UniProt P08173); assay: Partial agonist activity at human muscarinic M4 acetylcholine receptor expressed in CHO cells co-expressing Galpha16 assessed as calcium mobilization by FLIPR assay; format: functional, cell-based
[13] = Permeability of the compound at pH 7.4 by PAMPA method; format: physicochemical; conditions: read-out: permeability
[14] = biological target: T1, Muscarinic acetylcholine receptor M4 (Homo sapiens); assay: Partial agonist activity at human muscarinic M4 acetylcholine receptor expressed in CHO cells co-expressing Galpha16 assessed as calcium mobilization by FLIPR assay relative to control; format: functional, cell-based
[15] = biological target: Cysteinyl leukotriene receptor 1 (Homo sapiens) (UniProt Q9Y271); assay: Antagonist activity at CysLT1 receptor (unknown origin) expressed in CHO cells assessed as calcium mobilization at 3 uM; format: functional, cell-based
[16] = biological target: Histamine H3 receptor (Homo sapiens) (UniProt Q9Y5N1); assay: Agonist activity at histamine H3 receptor (unknown origin) expressed in CHO cells assessed as calcium mobilization at 3 uM; format: functional, cell-based
[17] = biological target: Histamine H2 receptor (Homo sapiens) (UniProt P25021); assay: Agonist activity at histamine H2 receptor (unknown origin) expressed in CHO cells assessed as calcium mobilization at 3 uM; format: functional, cell-based
[18] = biological target: Histamine H2 receptor (Homo sapiens) (UniProt P25021); assay: Antagonist activity at histamine H2 receptor (unknown origin) expressed in CHO cells assessed as calcium mobilization at 3 uM; format: functional, cell-based
[19] = biological target: D(2) dopamine receptor (Homo sapiens) (UniProt P14416); assay: Binding affinity to dopamine D2 receptor (unknown origin) at 3 uM by radioligand-binding assay
[20] = biological target: Beta-1 adrenergic receptor (Homo sapiens) (UniProt P08588); assay: Antagonist activity at adrenergic beta1 receptor (unknown origin) expressed in CHO cells assessed as calcium mobilization at 3 uM; format: functional, cell-based
[21] = biological target: Endothelin-1 receptor (Homo sapiens) (UniProt P25101); assay: Agonist activity at endothelin a receptor (unknown origin) expressed in CHO cells assessed as calcium mobilization at 3 uM; format: functional, cell-based
[22] = biological target: T2, Muscarinic acetylcholine receptor M5 (Homo sapiens) (UniProt P08912); assay: Agonist activity at human muscarinic M5 acetylcholine receptor expressed in CHO cells assessed as calcium mobilization at 30 uM by FLIPR assay; format: functional, cell-based
T2 sequence (whole entry): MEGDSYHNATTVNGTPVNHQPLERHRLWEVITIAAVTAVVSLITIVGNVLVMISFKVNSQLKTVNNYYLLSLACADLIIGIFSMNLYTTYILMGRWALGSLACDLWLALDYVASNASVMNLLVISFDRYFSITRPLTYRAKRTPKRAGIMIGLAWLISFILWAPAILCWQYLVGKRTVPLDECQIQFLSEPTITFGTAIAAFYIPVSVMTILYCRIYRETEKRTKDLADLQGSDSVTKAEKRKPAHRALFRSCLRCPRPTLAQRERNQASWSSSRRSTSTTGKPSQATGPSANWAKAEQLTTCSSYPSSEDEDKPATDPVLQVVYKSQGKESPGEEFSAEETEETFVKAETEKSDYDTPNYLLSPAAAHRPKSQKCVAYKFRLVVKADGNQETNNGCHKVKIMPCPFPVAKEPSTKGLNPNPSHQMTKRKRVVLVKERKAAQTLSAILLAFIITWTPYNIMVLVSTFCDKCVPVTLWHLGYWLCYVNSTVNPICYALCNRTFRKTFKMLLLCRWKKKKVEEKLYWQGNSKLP

[23] = biological target: Histamine H1 receptor (Homo sapiens) (UniProt P35367); assay: Antagonist activity at histamine H1 receptor (unknown origin) expressed in CHO cells assessed as calcium mobilization at 3 uM; format: functional, cell-based
[24] = biological target: Kappa-type opioid receptor (Homo sapiens) (UniProt P41145); assay: Antagonist activity at opiate kappa receptor (unknown origin) expressed in CHO cells assessed as calcium mobilization at 3 uM; format: functional, cell-based
Kappa-type opioid receptor (Homo sapiens), sequence (P41145 whole entry): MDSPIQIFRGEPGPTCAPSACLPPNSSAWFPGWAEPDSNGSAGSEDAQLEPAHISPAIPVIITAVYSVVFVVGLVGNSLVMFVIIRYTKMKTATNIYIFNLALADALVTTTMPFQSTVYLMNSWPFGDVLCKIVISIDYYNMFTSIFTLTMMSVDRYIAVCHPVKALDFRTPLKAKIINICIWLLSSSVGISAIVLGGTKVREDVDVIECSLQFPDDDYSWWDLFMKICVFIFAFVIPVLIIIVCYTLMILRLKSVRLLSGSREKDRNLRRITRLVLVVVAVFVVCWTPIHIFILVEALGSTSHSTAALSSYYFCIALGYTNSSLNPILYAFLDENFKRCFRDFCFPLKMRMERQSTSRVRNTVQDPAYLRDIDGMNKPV

D(2) dopamine receptor (Homo sapiens), sequence (P14416 whole entry): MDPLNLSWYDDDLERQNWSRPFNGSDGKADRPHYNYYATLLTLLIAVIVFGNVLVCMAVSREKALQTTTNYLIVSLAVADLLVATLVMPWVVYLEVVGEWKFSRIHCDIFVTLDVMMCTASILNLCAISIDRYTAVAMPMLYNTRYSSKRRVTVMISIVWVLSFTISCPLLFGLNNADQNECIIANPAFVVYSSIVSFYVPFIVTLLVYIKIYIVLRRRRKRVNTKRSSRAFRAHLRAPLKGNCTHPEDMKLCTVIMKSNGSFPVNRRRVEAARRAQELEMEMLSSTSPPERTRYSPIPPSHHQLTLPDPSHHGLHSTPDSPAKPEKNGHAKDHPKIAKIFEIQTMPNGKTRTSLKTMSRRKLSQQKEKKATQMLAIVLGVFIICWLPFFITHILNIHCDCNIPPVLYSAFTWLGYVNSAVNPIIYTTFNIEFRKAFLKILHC
Histamine H2 receptor (Homo sapiens), sequence (P25021 whole entry): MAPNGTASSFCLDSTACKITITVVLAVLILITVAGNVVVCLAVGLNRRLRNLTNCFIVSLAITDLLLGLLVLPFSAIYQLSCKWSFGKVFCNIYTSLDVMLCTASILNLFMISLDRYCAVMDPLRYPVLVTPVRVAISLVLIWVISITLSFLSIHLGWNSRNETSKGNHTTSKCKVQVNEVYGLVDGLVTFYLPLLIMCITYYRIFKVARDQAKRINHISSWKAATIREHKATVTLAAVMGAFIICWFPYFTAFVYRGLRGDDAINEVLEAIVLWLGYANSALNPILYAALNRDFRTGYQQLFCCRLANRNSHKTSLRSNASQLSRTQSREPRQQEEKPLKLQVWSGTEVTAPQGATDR
5-hydroxytryptamine receptor 4 (Homo sapiens), sequence (Q13639 whole entry): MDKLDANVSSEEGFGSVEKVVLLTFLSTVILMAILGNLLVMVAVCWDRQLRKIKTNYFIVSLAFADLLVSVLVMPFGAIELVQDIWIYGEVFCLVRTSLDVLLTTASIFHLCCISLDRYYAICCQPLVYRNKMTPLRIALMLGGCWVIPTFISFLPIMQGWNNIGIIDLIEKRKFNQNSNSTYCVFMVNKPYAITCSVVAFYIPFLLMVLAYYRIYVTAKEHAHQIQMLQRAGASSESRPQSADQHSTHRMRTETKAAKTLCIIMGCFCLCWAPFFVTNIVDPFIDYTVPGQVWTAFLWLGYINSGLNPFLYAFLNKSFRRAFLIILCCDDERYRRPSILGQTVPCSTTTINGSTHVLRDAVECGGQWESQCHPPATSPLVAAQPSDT
Adenosine receptor A2a (Homo sapiens), sequence (P29274 whole entry): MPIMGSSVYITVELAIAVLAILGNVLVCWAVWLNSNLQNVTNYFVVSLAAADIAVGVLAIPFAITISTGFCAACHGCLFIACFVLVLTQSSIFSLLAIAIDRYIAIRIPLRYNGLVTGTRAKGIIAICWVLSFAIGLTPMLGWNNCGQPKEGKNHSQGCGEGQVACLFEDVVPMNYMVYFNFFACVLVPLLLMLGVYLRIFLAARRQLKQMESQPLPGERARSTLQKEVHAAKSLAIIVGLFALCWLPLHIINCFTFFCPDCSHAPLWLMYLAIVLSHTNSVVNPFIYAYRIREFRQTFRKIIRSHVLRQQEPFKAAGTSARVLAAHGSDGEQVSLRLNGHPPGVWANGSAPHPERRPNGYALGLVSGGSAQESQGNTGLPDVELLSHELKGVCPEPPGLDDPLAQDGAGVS
Somatostatin receptor type 2 (Homo sapiens), sequence (P30874 whole entry): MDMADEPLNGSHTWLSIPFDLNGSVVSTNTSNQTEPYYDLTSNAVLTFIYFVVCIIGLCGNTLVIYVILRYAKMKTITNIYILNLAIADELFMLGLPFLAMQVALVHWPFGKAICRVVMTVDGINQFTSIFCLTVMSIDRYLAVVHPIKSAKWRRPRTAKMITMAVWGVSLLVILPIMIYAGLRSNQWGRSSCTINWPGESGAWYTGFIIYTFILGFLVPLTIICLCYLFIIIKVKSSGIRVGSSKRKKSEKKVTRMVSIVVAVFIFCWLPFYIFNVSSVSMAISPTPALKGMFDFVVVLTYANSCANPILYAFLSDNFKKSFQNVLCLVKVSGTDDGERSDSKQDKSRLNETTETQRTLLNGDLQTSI
Histamine H1 receptor (Homo sapiens), sequence (P35367 whole entry): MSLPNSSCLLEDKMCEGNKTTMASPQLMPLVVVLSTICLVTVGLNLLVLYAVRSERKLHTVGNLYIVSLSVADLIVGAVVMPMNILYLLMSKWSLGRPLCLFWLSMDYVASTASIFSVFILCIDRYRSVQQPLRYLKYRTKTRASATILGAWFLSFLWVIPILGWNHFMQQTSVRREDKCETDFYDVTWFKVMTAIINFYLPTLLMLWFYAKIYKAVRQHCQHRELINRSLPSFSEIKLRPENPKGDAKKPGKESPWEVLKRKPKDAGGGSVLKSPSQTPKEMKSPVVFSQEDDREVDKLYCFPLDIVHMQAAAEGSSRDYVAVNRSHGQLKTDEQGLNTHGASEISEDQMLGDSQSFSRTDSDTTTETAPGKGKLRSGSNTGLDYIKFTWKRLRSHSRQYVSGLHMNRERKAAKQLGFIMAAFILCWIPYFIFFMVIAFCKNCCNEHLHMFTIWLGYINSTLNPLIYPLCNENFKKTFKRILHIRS
Delta-type opioid receptor (Homo sapiens), sequence (P41143 whole entry): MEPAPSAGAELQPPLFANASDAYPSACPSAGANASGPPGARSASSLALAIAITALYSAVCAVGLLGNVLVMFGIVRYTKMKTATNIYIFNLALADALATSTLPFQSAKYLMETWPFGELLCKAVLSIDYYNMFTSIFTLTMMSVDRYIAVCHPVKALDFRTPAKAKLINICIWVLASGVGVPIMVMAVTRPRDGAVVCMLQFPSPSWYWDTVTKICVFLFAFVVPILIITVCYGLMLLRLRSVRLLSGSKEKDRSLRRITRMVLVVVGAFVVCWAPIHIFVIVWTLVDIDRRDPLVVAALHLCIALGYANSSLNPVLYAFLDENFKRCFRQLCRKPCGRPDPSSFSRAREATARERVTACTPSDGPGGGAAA
Cysteinyl leukotriene receptor 1 (Homo sapiens), sequence (Q9Y271 whole entry): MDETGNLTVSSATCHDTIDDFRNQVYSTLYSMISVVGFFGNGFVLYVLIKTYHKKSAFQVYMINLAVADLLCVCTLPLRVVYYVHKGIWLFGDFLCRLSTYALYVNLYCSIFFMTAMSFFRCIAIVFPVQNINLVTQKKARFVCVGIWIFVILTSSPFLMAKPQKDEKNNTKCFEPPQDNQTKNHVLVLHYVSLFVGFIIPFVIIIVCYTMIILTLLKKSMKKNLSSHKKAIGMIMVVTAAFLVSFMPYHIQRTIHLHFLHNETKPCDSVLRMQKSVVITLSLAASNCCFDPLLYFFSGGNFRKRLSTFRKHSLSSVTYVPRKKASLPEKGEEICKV
Neuropeptide Y receptor type 2 (Homo sapiens), sequence (P49146 whole entry): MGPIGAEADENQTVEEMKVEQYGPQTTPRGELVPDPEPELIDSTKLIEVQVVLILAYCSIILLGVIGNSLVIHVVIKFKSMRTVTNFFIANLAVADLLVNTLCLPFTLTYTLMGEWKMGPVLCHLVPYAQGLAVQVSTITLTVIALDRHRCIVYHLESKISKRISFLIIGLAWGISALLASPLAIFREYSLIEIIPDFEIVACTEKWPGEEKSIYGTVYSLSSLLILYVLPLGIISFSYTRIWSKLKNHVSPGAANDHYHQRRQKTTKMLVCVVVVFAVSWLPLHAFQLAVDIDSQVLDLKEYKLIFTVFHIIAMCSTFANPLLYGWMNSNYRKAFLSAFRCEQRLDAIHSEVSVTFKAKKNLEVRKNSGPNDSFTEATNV
P2Y purinoceptor 1 (Homo sapiens), sequence (P47900 whole entry): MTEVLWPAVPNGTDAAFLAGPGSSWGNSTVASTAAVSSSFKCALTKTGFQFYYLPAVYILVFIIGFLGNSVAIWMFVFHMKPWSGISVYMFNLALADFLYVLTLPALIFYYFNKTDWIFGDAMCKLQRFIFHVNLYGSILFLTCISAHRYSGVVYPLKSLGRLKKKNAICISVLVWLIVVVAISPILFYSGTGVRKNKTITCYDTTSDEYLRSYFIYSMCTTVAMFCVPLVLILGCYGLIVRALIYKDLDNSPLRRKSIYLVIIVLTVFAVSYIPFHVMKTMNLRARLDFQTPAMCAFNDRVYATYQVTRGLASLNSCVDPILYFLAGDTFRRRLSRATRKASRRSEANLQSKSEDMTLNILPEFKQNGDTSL
Histamine H3 receptor (Homo sapiens), sequence (Q9Y5N1 whole entry): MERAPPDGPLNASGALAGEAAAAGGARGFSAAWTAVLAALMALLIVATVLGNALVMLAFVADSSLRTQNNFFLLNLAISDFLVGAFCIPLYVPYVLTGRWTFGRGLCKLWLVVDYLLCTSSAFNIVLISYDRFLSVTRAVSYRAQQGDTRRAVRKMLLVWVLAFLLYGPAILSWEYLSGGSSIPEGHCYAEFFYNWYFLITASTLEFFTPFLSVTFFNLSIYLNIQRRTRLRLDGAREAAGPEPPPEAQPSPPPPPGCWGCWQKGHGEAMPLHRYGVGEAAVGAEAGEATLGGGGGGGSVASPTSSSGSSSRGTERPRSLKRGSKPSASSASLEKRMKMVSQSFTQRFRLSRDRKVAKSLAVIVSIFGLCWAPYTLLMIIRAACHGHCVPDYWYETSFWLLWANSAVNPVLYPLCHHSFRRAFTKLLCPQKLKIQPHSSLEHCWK

With CCOC(=O)N1[C@@H]2CC[C@H]1C[C@H](CN1CC[C@@H](N3Cc4ccccc4NC3=O)C1)C2 the Activity [1] was -0.18%, the inhibition [2] was 2.25% and the Activity [3] was -0.89%. The inhibition [4] was -3.44%, the Activity [5] was -1.42% and the ED50 (Rattus norvegicus) was 3 mg/kg. It also gave an inhibition [6] of -8.79%, an Activity [7] of -0.04% and an inhibition [8] of -1.91%. It also gave an Activity [9] of 0.39%, an Activity [10] of 0.06% and an Activity [11] of 49%. The EC50 [12] was 86 nM, the Papp [13] was 53.8 ×10⁻⁶ cm/s and the Activity [14] was 51%. It also gave an inhibition [15] of 0.46%, an Activity [16] of -0.38% and an Activity [17] of -0.83%. The inhibition [18] was 5.27%, the inhibition [19] was 13% and the inhibition [20] was 27.6%. It also gave an Activity [21] of 0.27%, an Activity [22] of 3% and an inhibition [23] of 5.59%. For the same molecule, the inhibition [24] was 1.33%.
